Laboratory results from patent US11453647B2, “Benzimidazole derivatives as adenosine receptor antagonists” (Merck Patent GmbH, priority 2017, dated 2022).

What was measured:
Format in all cases: cell-based
[1] = target: T1, human A1 receptor (Homo sapiens, UniProt P30542); experiment: functional cAMP (HTRF) assay, recombinant CHO cells expressing human A1 receptor, forskolin, agonist CPA
T1 construct: expressed in transfected cells; host or cells: CHO
T1 sequence (P30542 1-326): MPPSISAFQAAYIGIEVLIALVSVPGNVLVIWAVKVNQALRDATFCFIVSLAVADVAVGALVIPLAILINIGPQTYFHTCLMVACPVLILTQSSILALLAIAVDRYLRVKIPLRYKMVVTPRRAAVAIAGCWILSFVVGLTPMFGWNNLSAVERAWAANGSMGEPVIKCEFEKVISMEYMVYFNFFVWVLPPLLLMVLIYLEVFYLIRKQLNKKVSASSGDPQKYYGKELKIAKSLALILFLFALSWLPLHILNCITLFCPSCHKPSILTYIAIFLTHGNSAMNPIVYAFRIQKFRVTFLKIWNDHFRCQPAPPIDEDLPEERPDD
Method in brief: (§1)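 CHO cells (hA1 or hA3) + forskolin + test cpd + agonist (CPA/A1, IB-MECA/A3), 30 min; HTRF cAMP readout; normalized vs inhibitor and DMSO controls, curve fit.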

[2] = target: T2, human A3 receptor (Homo sapiens, UniProt P0DMS8); experiment: functional cAMP (HTRF) assay, recombinant CHO cells expressing human A3 receptor, forskolin, agonist IB-MECA
T2 construct: expressed in transfected cells; host or cells: CHO
T2 sequence (P0DMS8 1-318): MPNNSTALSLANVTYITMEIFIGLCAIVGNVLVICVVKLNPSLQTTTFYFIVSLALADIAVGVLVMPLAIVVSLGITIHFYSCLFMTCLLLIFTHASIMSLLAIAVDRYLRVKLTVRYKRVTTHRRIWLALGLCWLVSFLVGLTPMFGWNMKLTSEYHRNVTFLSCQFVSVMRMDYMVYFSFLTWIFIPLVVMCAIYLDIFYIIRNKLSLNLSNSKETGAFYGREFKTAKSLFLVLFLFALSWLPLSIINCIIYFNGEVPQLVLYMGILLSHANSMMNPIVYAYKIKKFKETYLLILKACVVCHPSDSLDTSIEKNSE
Method in brief: as §1

[3] = target: T3, human A2A receptor (Homo sapiens, UniProt P29274); experiment: functional cAMP (HTRF) assay, recombinant HEK293 cells expressing human A2A receptor, agonist NECA
T3 construct: expressed in transfected cells; host or cells: HEK293
T3 sequence (P29274 whole entry): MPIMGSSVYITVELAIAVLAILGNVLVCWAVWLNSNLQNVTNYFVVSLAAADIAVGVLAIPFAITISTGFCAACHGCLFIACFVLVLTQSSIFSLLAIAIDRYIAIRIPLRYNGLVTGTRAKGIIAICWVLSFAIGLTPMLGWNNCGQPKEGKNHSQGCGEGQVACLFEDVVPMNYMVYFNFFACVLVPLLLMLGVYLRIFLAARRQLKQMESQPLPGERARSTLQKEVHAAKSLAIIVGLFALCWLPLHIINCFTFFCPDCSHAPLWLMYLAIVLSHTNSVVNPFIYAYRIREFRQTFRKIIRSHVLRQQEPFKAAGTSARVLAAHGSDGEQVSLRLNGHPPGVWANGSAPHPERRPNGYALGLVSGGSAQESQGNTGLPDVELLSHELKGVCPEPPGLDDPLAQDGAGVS

[4] = target: T4, A2B receptors (Homo sapiens, UniProt P29275); experiment: functional cAMP (HTRF) assay, recombinant HEK293 cells expressing human A2B receptor, agonist NECA; set-up: expressed in transfected cells; host or cells: HEK293
T4 sequence (P29275 1-332): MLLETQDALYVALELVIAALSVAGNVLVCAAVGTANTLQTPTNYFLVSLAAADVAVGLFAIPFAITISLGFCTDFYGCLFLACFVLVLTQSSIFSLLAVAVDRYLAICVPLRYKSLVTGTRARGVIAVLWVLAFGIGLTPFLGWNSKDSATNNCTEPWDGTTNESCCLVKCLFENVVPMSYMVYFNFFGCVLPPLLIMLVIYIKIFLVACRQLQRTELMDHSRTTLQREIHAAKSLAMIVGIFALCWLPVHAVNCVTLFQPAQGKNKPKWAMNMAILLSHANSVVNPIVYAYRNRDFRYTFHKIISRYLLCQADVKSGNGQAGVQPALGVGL

Row | IC50 [1] | IC50 [2] | IC50 [3] | IC50 [4] | Compound
1 | > 1000 nM | > 1000 nM | < 10 nM | < 100 nM | COc1ccc(-c2cnn(C)c2)c2nc(NC(=O)N3CC[C@H](F)C3)[nH]c12 [compound 221, (3S)-3-fluoro-N-[7-methoxy-4-(1-methyl-1H-pyrazol-4-yl)-1H-1,3-benzodiazol-2-yl]pyrrolidine-1-carboxamide]
2 | > 1000 nM | < 1000 nM | < 10 nM | < 1000 nM | COc1ccc(-c2ccccc2)c2nc(NC(=O)c3ccc(CN)cc3)[nH]c12 [compound 13, 4-Aminomethyl-N-(7-methoxy-4-phenyl-1H-benzoimidazol-2-yl)-benzamide]
3 | > 1000 nM | > 1000 nM | < 10 nM | < 100 nM | COc1ccc(-c2cnn(C)c2)c2nc(NC(=O)c3ccc(N4C(=O)CCC4=O)cc3)[nH]c12 [compound 248, 4-(2,5-dioxopyrrolidin-1-yl)-N-[7-methoxy-4-(1-methyl-1H-pyrazol-4-yl)-1H-1,3-benzodiazol-2-yl]benzamide]
4 | > 1000 nM | > 1000 nM | < 100 nM | < 1000 nM | COc1ccc(-c2cn[nH]c2)c2nc(NC(=O)N3CCC(C)(O)CC3)[nH]c12 [compound 79, 4-hydroxy-N-[7-methoxy-4-(1H-pyrazol-4-yl)-1H-1,3-benzodiazol-2-yl]-4-methylpiperidine-1-carboxamide]
5 | > 1000 nM | < 1000 nM | < 10 nM | > 1000 nM | COc1ccc(-c2cnn(C)c2)c2nc(NC(=O)c3ccnc(N4CC[C@](C)(O)C4)c3)[nH]c12 [compound 104, 2-[(3S)-3-hydroxy-3-methylpyrrolidin-1-yl]-N-[7-methoxy-4-(1-methyl-1H-pyrazol-4-yl)-1H-1,3-benzodiazol-2-yl]pyridine-4-carboxamide]
6 | < 1000 nM | > 1000 nM | < 10 nM | < 1000 nM | COc1ccc(-c2ccc(F)cc2)c2nc(NC(=O)N3CCC(C)(O)CC3)[nH]c12 [compound 144, N-[4-(4-fluorophenyl)-7-methoxy-1H-1,3-benzodiazol-2-yl]-4-hydroxy-4-methylpiperidine-1-carboxamide]
7 | < 100 nM | < 100 nM | < 10 nM | < 10 nM | COc1ccc(-c2ccc(F)cc2)c2nc(NC(=O)c3cnn(C)c3)[nH]c12 [compound 318, N-[4-(4-fluorophenyl)-7-methoxy-1H-1,3-benzodiazol-2-yl]-1-methyl-1H-pyrazole-4-carboxamide]
8 | > 1000 nM | < 1000 nM | < 10 nM | > 1000 nM | COc1ccc(-c2cnn(C)c2)c2nc(NC(=O)c3ccnc(N4CCC5(CCOC5)C4)c3)[nH]c12 (stereo not shown) [compound 106, N-[7-methoxy-4-(1-methyl-1H-pyrazol-4-yl)-1H-1,3-benzodiazol-2-yl]-2-{2-oxa-7-azaspiro[4.4]nonan-7-yl}pyridine-4-carboxamide]
9 | > 1000 nM | < 1000 nM | < 10 nM | < 1000 nM | COc1ccc(C2CCOCC2)c2nc(NC(=O)c3ccc4c(c3)CCO4)[nH]c12 [compound 108, N-[7-methoxy-4-(oxan-4-yl)-1H-1,3-benzodiazol-2-yl]-2,3-dihydro-1-benzofuran-5-carboxamide]
10 | < 1000 nM | < 1000 nM | < 10 nM | < 10 nM | COc1ccc(-c2ccc(F)cc2)c2nc(NC(=O)c3ccc(N4C(=O)CCC4=O)cc3)[nH]c12 [compound 317, 4-(2,5-dioxopyrrolidin-1-yl)-N-[4-(4-fluorophenyl)-7-methoxy-1H-1,3-benzodiazol-2-yl]benzamide]
11 | > 1000 nM | < 1000 nM | < 10 nM | > 1000 nM | COc1ccc(C2CCOCC2)c2nc(NC(=O)c3ccnc(N4CC[C@]5(CCOC5)C4)c3)[nH]c12 [compound 154, N-[7-methoxy-4-(oxan-4-yl)-1H-1,3-benzodiazol-2-yl]-2-[(5S)-2-oxa-7-azaspiro[4.4]nonan-7-yl]pyridine-4-carboxamide]
12 | < 1000 nM | < 1000 nM | < 10 nM | < 1000 nM | COc1ccc(-c2cnn(C)c2)c2nc(NC(=O)c3ccc4c(c3)CCO4)[nH]c12 [compound 101, N-[7-methoxy-4-(1-methyl-1H-pyrazol-4-yl)-1H-1,3-benzodiazol-2-yl]-2,3-dihydro-l-benzofuran-5-carboxamide]
13 | > 1000 nM | > 1000 nM | < 100 nM | < 1000 nM | COCCC1CCN(C(=O)Nc2nc3c(-c4cnn(C)c4)ccc(OC)c3[nH]2)C1 (stereo not shown) [compound 134, N-[7-methoxy-4-(1-methyl-1H-pyrazol-4-yl)-1H-1,3-benzodiazol-2-yl]-3-(2-methoxyethyl)pyrrolidine-1-carboxamide]
14 | > 1000 nM | > 1000 nM | < 100 nM | < 100 nM | COc1ccc(-c2cccc3[nH]ncc23)c2nc(NC(=O)N3CCC(C)(O)CC3)[nH]c12 [compound 271, 4-hydroxy-N-[4-(1H-indazol-4-yl)-7-methoxy-1H-1,3-benzodiazol-2-yl]-4-methylpiperidine-1-carboxamide]
15 | < 1000 nM | > 1000 nM | < 10 nM | > 1000 nM | COc1ccc(-c2cnn(CCC(C)C)c2)c2nc(NC(=O)N3CCC(C)(O)CC3)[nH]c12 [compound 151, 4-hydroxy-N-{7-methoxy-4-[1-(3-methylbutyl)-1H-pyrazol-4-yl]-1H-1,3-benzodiazol-2-yl}-4-methylpiperidine-1-carboxamide]
16 | < 1000 nM | > 1000 nM | < 10 nM | < 1000 nM | COc1ccc(C2CCOCC2)c2nc(NC(=O)N3CCC(O)(Cc4ccccc4)CC3)[nH]c12 [compound 103, 4-benzyl-4-hydroxy-N-[7-methoxy-4-(oxan-4-yl)-1H-1,3-benzodiazol-2-yl]piperidine-1-carboxamide]
17 | < 1000 nM | < 1000 nM | < 10 nM | < 10 nM | COc1ccc(-c2ccccc2F)c2nc(NC(=O)c3ccc(C(=O)N(C)C)cc3)[nH]c12 [compound 242, N4-[4-(2-fluorophenyl)-7-methoxy-1H-1,3-benzodiazol-2-yl]-N1,N1-dimethylbenzene-1,4-dicarboxamide]
18 | > 1000 nM | < 1000 nM | < 10 nM | < 10 nM | COc1cc(F)c(C2=CCOCC2)c2nc(NC(=O)c3ccc(C(=O)N(C)C)cc3)[nH]c12 [compound 262, N4-[4-(3,6-dihydro-2H-pyran-4-yl)-5-fluoro-7-methoxy-1H-1,3-benzodiazol-2-yl]-N1,N1-dimethylbenzene-1,4-dicarboxamide]
19 | > 1000 nM | < 1000 nM | < 10 nM | > 1000 nM | COc1ccc(C2CCCCC2)c2nc(NC(=O)N3CCC(C)(O)CC3)[nH]c12 [compound 16, 4-Hydroxy-4-methyl-piperidine-1-carboxylic acid (4-cyclohexyl-7-methoxy-1H-benzoimidazol-2-yl)-amide]
20 | > 1000 nM | < 1000 nM | < 100 nM | < 100 nM | COc1ccc(-c2cccnc2)c2nc(NC(=O)C3CC3)[nH]c12 [compound 315, N-[7-methoxy-4-(pyridin-3-yl)-1H-1,3-benzodiazol-2-yl]cyclopropanecarboxamide]
21 | > 1000 nM | > 1000 nM | < 10 nM | > 1000 nM | COc1ccc(-c2cnn(C)c2)c2nc(NC(=O)c3ccc(CN(C)C)cc3)[nH]c12 [compound 48, 4-[(dimethylamino)methyl]-N-[7-methoxy-4-(1-methyl-1H-pyrazol-4-yl)-1H-1,3-benzodiazol-2-yl]benzamide]
22 | < 1000 nM | < 1000 nM | < 10 nM | < 10 nM | COc1ccc(-c2ccc(F)cc2)c2nc(NC(=O)c3ccc(C(=O)N(C)C)cc3)[nH]c12 [compound 316, N4-[4-(4-fluorophenyl)-7-methoxy-1H-1,3-benzodiazol-2-yl]-N1,N1-dimethylbenzene-1,4-dicarboxamide]
